Reference: patent publication US20250003953A1, “Methods and Model Systems for Assessing Therapeutic Properties of Candidate Agents and Related Computer Readable Media and Systems” (The Regents of the University of California, priority 2021, published 2025)

Columns and labels:
[1] = test system: panel of G12C and non G12C lines pooled in vivo as xenografts; test: GENEVA combination therapy study in cell line pools in vivo as xenografts; design: species or system mouse; conditions: in combination with ARS1620; for drug synergy from cell cycle active/inactive proportions: G12C lines
Description: Treatment conditions include Antimycin, ARS1620, Galunisertib, INK128, DMSO, ARS1620+Antimycin, ARS1620+Galunisertib, ARS1620+INK128. FIG. 8B utilizes GENEVA data from FIG. 8A for synergy calculations performed on cell cycle states in each drug condition singly and in combination estimated for G12C lines across drug conditions.
2 mL of Matrigel Basement Membrane reagent was added to the GENEVA pool prepared by growth rate balancing for a final concentration of 20M/mL. One hundred microliters of this solution was injected into NSG mice in a flank xenograft injection. Twenty-four hours later, mice harboring GENEVA tumors were drugged with the drug compound in a vehicle solution of 5% DMSO, 95% Labrasol. Mice were dosed by oral gavage four fourteen days with five days on, two days off. On the fourteenth day, mice were sacrificed, tumors harvested by homogenization with surgical shears and resuspended in 5 mg/mL Liberase™ Cell Dissociation Reagent in 1:1 DMEM: F12 cell media, DNAse I (10 U/uL). Tumors were incubated in a 37° C. incubator with shaking at 600 RPMs for 45 minutes for enzymatic dissociation and then spun down at 800 g for 5 minutes at 4° C. Dissociated tumors were resuspended in 100 uL 1×PBS.
A panel of G12C and non G12C lines pooled in vivo as xenografts was utilized to conduct combination therapy studies comparing ARS1620 with and without Galunisertib, INK128, and Antimycin for a total of eight different treatment conditions; these compounds were taken from our combination therapy discoveries and mechanistic understanding of mitochondrial action of ARS1620 (FIG. 8A).

[2] = test system: H1373 KRAS.G12C mutant line; test: Multi-arm combination therapy in-vivo mouse study; conditions: in combination with ARS1620; for synergy in tumor growth reduction: compared to null model of independence
Description: Bliss drug synergy is plotted and several compounds show significant drug synergy with multiple KRAS.G12C inhibitors.
Using the GENEVA dataset of ARS-1620 in a fourteen day drug treatment timeline in which drug resistance developed, gene expression indicators of resistance mechanisms were obtained (FIG. 4A). […] The strongest GENEVA prediction, mTOR resistance, was tested in a multi-arm in vivo mouse study and significant in vivo Bliss drug synergy and tumor reduction over time was found (FIG. 4C,D).
The GENEVA datasets were compared where GENEVA pools were drugged with the KRAS.G12C inhibitor ARS1620, conducted both in vitro and in vivo. Specifically, the in vitro data were compared against the in vivo data to look for differences and similarities attributable to the context of the model systems used. […] As a validation study, a combination therapy multi-arm in vivo mouse study was designed to test the efficacy of an EMT inhibitor, Galunisertib in combination with ARS1620.

lipid peroxidation = test: Lipid peroxidation live cell probe dose curve and survival kinetics; type: cell-based; conditions: dose curves
Text: FIG. 7B plots gene expression of anti-ferroptotic genes for each cell line in response to increasing ARS1620 dosage. […] Lipid peroxidation and survival kinetics cross over around IC50 in all compounds indicating ARS1620 performs as a ferroptosis inducing agent.
Among this group of genes were FTH1 and FTL, the two components of the Ferritin Complex, which is responsible for sequestration of labile free iron. Using a lipid peroxidation live cell probe, lipid peroxidation—one of the hallmark phenotypes of ferroptosis—was measured in response to ARS-1620 treatment.

| Compound | gene-level synergy on mitochondrial reads (linear model) [1] | drug synergy from cell cycle active/inactive proportions [1] | synergy in tumor growth reduction [2] | cross-over of survival and normalized lipid peroxidation curves (lipid peroxidation) | suppression of tumor growth (relative tumor volume) ([2]; n=4-5 mice per condition) |
| --- | --- | --- | --- | --- | --- |
| CC(C)n1nc(-c2ccc3oc(N)nc3c2)c2c(N)ncnc21 [INK128] | further increase the synergistic decrease in mitochondrial reads | relative in vivo synergy | synergistically reduce tumor growth in-vivo |  |  |
| CN(C)c1nc(N(C)C)nc(N(C)C)n1 [Altretamine] |  |  |  | crossed over around the IC50 survival value |  |
| Cc1cccc(-c2nn3c(c2-c2ccnc4ccc(C(N)=O)cc24)CCC3)n1 [Galunisertib] | further increase the synergistic decrease in mitochondrial reads | relative in vivo synergy | reduce growth synergistically |  | extremely effective in suppressing tumor growth |
| antimycin |  | antagonistic effect |  |  |  |
